# Laboratory results published in patent US20120196811A1 (priority 2009, published 2012).
# Test system: broiler chickens with combined chronic mycotoxicosis (aflatoxin B1, ochratoxin A, T-2-mycotoxin, fumonisin B1 in feed)
# Parameters: species or system broiler chickens of the Cobb-Avian-48 cross
# Conditions: in vivo
structure (smiles),measurement,value
OC[C@H]1O[C@@H](O[C@@H]2[C@@H](CO)OC(O)(CO)[C@H]2O)[C@H](O)[C@@H](O)[C@H]1O (mixture of isomers) [lactulose],recovery of average daily weight gain per kilogram of component in the compound feed,25%
